Measurements published in ChEMBL document CHEMBL1817568, “Novel hybrids of fluconazole and furanones: design, synthesis and antifungal activity” (2011).
Converted amounts (≈) assume the structure as drawn. Values belong to the compound of their own block, whether it stands above or below them. The source made the active and inactive calls. The rule behind the calls is not given here.

Legend:
Nakaseomyces glabratus [1] = test: Antifungal activity against Candida glabrata ATCC 90030 at 32 ug/ml by broth dilution method; assay type: functional, organism-based
Aspergillus niger [2] = test: Antifungal activity against Aspergillus niger ATCC 16404 at 32 ug/ml by broth dilution method; assay type: functional, organism-based
Candida albicans [3] = test: Antifungal activity against Candida albicans ATCC 24433 at 32 ug/ml by broth dilution method; assay type: functional, organism-based
Candida tropicalis [4] = test: Antifungal activity against Candida tropicalis ATCC 750 at 32 ug/ml by broth dilution method; assay type: functional, organism-based
Aspergillus fumigatus [5] = test: Antifungal activity against Aspergillus fumigatus ATCC 46645 at 32 ug/ml by broth dilution method; assay type: functional, organism-based
Fusarium proliferatum [6] = test: Antifungal activity against Fusarium proliferatum ATCC 10052 at 32 ug/ml by broth dilution method; assay type: functional, organism-based
Pichia kudriavzevii [7] = test: Antifungal activity against Candida krusei ATCC 6258 at 32 ug/ml by broth dilution method; assay type: functional, organism-based
Cryptococcus neoformans [8] = test: Antifungal activity against Cryptococcus neoformans ATCC 34664 at 32 ug/ml by broth dilution method; assay type: functional, organism-based
Pichia kudriavzevii [9] = test: Antifungal activity against Candida krusei ATCC 6258 at 8 ug/ml by broth dilution method; assay type: functional, organism-based
Nakaseomyces glabratus [10] = test: Antifungal activity against Candida glabrata ATCC 90030 by broth dilution method; assay type: functional
Aspergillus fumigatus [11] = test: Antifungal activity against Aspergillus fumigatus ATCC 46645 at 8 ug/ml by broth dilution method; assay type: functional, organism-based
Candida tropicalis [12] = test: Antifungal activity against Candida tropicalis ATCC 750 at 8 ug/ml by broth dilution method; assay type: functional, organism-based
Candida albicans [13] = test: Antifungal activity against Candida albicans ATCC 24433 by broth dilution method; assay type: functional
Cryptococcus neoformans [14] = test: Antifungal activity against Cryptococcus neoformans ATCC 34664 at 8 ug/ml by broth dilution method; assay type: functional, organism-based
Aspergillus niger [15] = test: Antifungal activity against Aspergillus niger ATCC 16404 at 8 ug/ml by broth dilution method; assay type: functional, organism-based
Fusarium proliferatum [16] = test: Antifungal activity against Fusarium proliferatum ATCC 10052 at 8 ug/ml by broth dilution method; assay type: functional, organism-based
Candida tropicalis [17] = test: Antifungal activity against Candida tropicalis ATCC 750 by broth dilution method; assay type: functional
Candida tropicalis [18] = test: Antifungal activity against Candida tropicalis ATCC 750 at 16 ug/ml by broth dilution method; assay type: functional, organism-based
Pichia kudriavzevii [19] = test: Antifungal activity against Candida krusei ATCC 6258 at 16 ug/ml by broth dilution method; assay type: functional, organism-based
Cryptococcus neoformans [20] = test: Antifungal activity against Cryptococcus neoformans ATCC 34664 at 16 ug/ml by broth dilution method; assay type: functional, organism-based
Aspergillus niger [21] = test: Antifungal activity against Aspergillus niger ATCC 16404 at 16 ug/ml by broth dilution method; assay type: functional, organism-based
Aspergillus fumigatus [22] = test: Antifungal activity against Aspergillus fumigatus ATCC 46645 at 16 ug/ml by broth dilution method; assay type: functional, organism-based
Fusarium proliferatum [23] = test: Antifungal activity against Fusarium proliferatum ATCC 10052 at 16 ug/ml by broth dilution method; assay type: functional, organism-based
Fusarium proliferatum [24] = test: Antifungal activity against Fusarium proliferatum ATCC 10052 at 2 ug/ml by broth dilution method; assay type: functional, organism-based
Cryptococcus neoformans [25] = test: Antifungal activity against Cryptococcus neoformans ATCC 34664 at 2 ug/ml by broth dilution method; assay type: functional, organism-based
Candida tropicalis [26] = test: Antifungal activity against Candida tropicalis ATCC 750 at 2 ug/ml by broth dilution method; assay type: functional, organism-based
Aspergillus fumigatus [27] = test: Antifungal activity against Aspergillus fumigatus ATCC 46645 at 2 ug/ml by broth dilution method; assay type: functional, organism-based
Candida albicans [28] = test: Antifungal activity against Candida albicans ATCC 24433 at 2 ug/ml by broth dilution method; assay type: functional, organism-based
Pichia kudriavzevii [29] = test: Antifungal activity against Candida krusei ATCC 6258 at 2 ug/ml by broth dilution method; assay type: functional, organism-based
Aspergillus niger [30] = test: Antifungal activity against Aspergillus niger ATCC 16404 at 2 ug/ml by broth dilution method; assay type: functional, organism-based
Nakaseomyces glabratus [31] = test: Antifungal activity against Candida glabrata ATCC 90030 at 16 ug/ml by broth dilution method; assay type: functional, organism-based
Candida albicans [32] = test: Antifungal activity against Candida albicans ATCC 24433 at 16 ug/ml by broth dilution method; assay type: functional, organism-based
Aspergillus niger [33] = test: Antifungal activity against Aspergillus niger ATCC 16404 at 128 ug/ml by broth dilution method; assay type: functional, organism-based
Aspergillus fumigatus [34] = test: Antifungal activity against Aspergillus fumigatus ATCC 46645 at 128 ug/ml by broth dilution method; assay type: functional, organism-based
Cryptococcus neoformans [35] = test: Antifungal activity against Cryptococcus neoformans ATCC 34664 at 128 ug/ml by broth dilution method; assay type: functional, organism-based
Nakaseomyces glabratus [36] = test: Antifungal activity against Candida glabrata ATCC 90030 at 128 ug/ml by broth dilution method; assay type: functional, organism-based
Pichia kudriavzevii [37] = test: Antifungal activity against Candida krusei ATCC 6258 at 128 ug/ml by broth dilution method; assay type: functional, organism-based
Candida tropicalis [38] = test: Antifungal activity against Candida tropicalis ATCC 750 at 128 ug/ml by broth dilution method; assay type: functional, organism-based
Candida albicans [39] = test: Antifungal activity against Candida albicans ATCC 24433 at 128 ug/ml by broth dilution method; assay type: functional, organism-based
Fusarium proliferatum [40] = test: Antifungal activity against Fusarium proliferatum ATCC 10052 at 128 ug/ml by broth dilution method; assay type: functional, organism-based
Nakaseomyces glabratus [41] = test: Antifungal activity against Candida glabrata ATCC 90030 at 2 ug/ml by broth dilution method; assay type: functional, organism-based
Fusarium proliferatum [42] = test: Antifungal activity against Fusarium proliferatum ATCC 10052 by broth dilution method; assay type: functional
Cryptococcus neoformans [43] = test: Antifungal activity against Cryptococcus neoformans ATCC 34664 by broth dilution method; assay type: functional
Aspergillus fumigatus [44] = test: Antifungal activity against Aspergillus fumigatus ATCC 46645 by broth dilution method; assay type: functional
Pichia kudriavzevii [45] = test: Antifungal activity against Candida krusei ATCC 6258 by broth dilution method; assay type: functional
Aspergillus niger [46] = test: Antifungal activity against Aspergillus niger ATCC 16404 by broth dilution method; assay type: functional

SMILES: COc1ccc(C2=C(c3ccc(Br)cc3)COC2=O)cc1
Activity (Nakaseomyces glabratus [1]): inactive
Activity (Aspergillus niger [2]): inactive
Activity (Candida albicans [3]): inactive
Activity (Candida tropicalis [4]): inactive
Activity (Aspergillus fumigatus [5]): inactive
Activity (Fusarium proliferatum [6]): inactive
Activity (Pichia kudriavzevii [7]): inactive
Activity (Cryptococcus neoformans [8]): inactive

MIC50 (Nakaseomyces glabratus [10]): 1 µg/mL (≈ 1.8 µM)
MIC50 (Candida albicans [13]): 1 µg/mL (≈ 1.8 µM)
SMILES: COc1cc(C2=C(c3ccc(F)cc3F)COC2=O)ccc1OCC(O)(Cn1cncn1)c1ccc(F)cc1F (racemic)
Activity (Pichia kudriavzevii [9]): inactive
Activity (Aspergillus fumigatus [11]): inactive
Activity (Candida tropicalis [12]): inactive
Activity (Cryptococcus neoformans [14]): inactive
Activity (Aspergillus niger [15]): inactive
Activity (Fusarium proliferatum [16]): inactive

MIC50 (Nakaseomyces glabratus [10]): 4 µg/mL (≈ 8.43 µM)
MIC50 (Candida tropicalis [17]): 8 µg/mL (≈ 16.9 µM)
MIC50 (Candida albicans [13]): 0.5 µg/mL (≈ 1.05 µM)
SMILES: O=C1NC(=S)S/C1=C\c1ccc(OCC(O)(Cn2cncn2)c2ccc(F)cc2F)cc1 (racemic)
Activity (Aspergillus niger [2]): inactive
Activity (Aspergillus fumigatus [5]): inactive
Activity (Fusarium proliferatum [6]): inactive
Activity (Pichia kudriavzevii [7]): inactive
Activity (Cryptococcus neoformans [8]): inactive

MIC50 (Nakaseomyces glabratus [10]): 8 µg/mL (≈ 15.9 µM)
MIC50 (Candida albicans [13]): 1 µg/mL (≈ 1.98 µM)
SMILES: COc1cc(/C=C2\SC(=S)NC2=O)ccc1OCC(O)(Cn1cncn1)c1ccc(F)cc1F (racemic)
Activity (Candida tropicalis [18]): inactive
Activity (Pichia kudriavzevii [19]): inactive
Activity (Cryptococcus neoformans [20]): inactive
Activity (Aspergillus niger [21]): inactive
Activity (Aspergillus fumigatus [22]): inactive
Activity (Fusarium proliferatum [23]): inactive

SMILES: COc1cc(/C=C2\N=C(c3ccccc3)OC2=O)cc(OC)c1OCC(O)(Cn1cncn1)c1ccc(F)cc1F (racemic)
Activity (Fusarium proliferatum [24]): inactive
Activity (Cryptococcus neoformans [25]): inactive
Activity (Candida tropicalis [26]): inactive
Activity (Aspergillus fumigatus [27]): inactive
Activity (Candida albicans [28]): inactive
Activity (Pichia kudriavzevii [29]): inactive
Activity (Aspergillus niger [30]): inactive

SMILES: COc1cc(/C=C2\SC(=S)NC2=O)cc(OC)c1OCC(O)(Cn1cncn1)c1ccc(F)cc1F (racemic)
Activity (Nakaseomyces glabratus [31]): inactive
Activity (Candida tropicalis [18]): inactive
Activity (Pichia kudriavzevii [19]): inactive
Activity (Cryptococcus neoformans [20]): inactive
Activity (Aspergillus niger [21]): inactive
Activity (Aspergillus fumigatus [22]): inactive
Activity (Fusarium proliferatum [23]): inactive
Activity (Candida albicans [32]): inactive

SMILES: COc1cc(CC(=O)O)ccc1OCC(O)(Cn1cncn1)c1ccc(F)cc1F (racemic)
Activity (Aspergillus niger [33]): inactive
Activity (Aspergillus fumigatus [34]): inactive
Activity (Cryptococcus neoformans [35]): inactive
Activity (Nakaseomyces glabratus [36]): inactive
Activity (Pichia kudriavzevii [37]): inactive
Activity (Candida tropicalis [38]): inactive
Activity (Candida albicans [39]): inactive
Activity (Fusarium proliferatum [40]): inactive

SMILES: COc1ccc(C2=C(c3ccc(Br)cc3)/C(=C/c3ccc(OCC(O)(Cn4cncn4)c4ccc(F)cc4F)cc3)OC2=O)cc1 (racemic)
Activity (Fusarium proliferatum [24]): inactive
Activity (Nakaseomyces glabratus [41]): inactive
Activity (Cryptococcus neoformans [25]): inactive
Activity (Candida tropicalis [26]): inactive
Activity (Aspergillus fumigatus [27]): inactive
Activity (Candida albicans [28]): inactive
Activity (Pichia kudriavzevii [29]): inactive
Activity (Aspergillus niger [30]): inactive

MIC50 (Nakaseomyces glabratus [10]): 0.25 µg/mL (≈ 0.271 µM)
MIC50 (Fusarium proliferatum [42]): 2 µg/mL (≈ 2.16 µM)
MIC50 (Cryptococcus neoformans [43]): 0.5 µg/mL (≈ 0.541 µM)
MIC50 (Aspergillus fumigatus [44]): 0.5 µg/mL (≈ 0.541 µM)
MIC50 (Pichia kudriavzevii [45]): 0.5 µg/mL (≈ 0.541 µM)
MIC50 (Aspergillus niger [46]): 0.25 µg/mL (≈ 0.271 µM)
MIC50 (Candida tropicalis [17]): 0.5 µg/mL (≈ 0.541 µM)
MIC50 (Candida albicans [13]): 0.25 µg/mL (≈ 0.271 µM)
SMILES: C[C@@H]1[C@H](O)[C@@H](C)/C=C/C=C/C=C/C=C/C=C/C=C/C=C/[C@H](O[C@@H]2O[C@H](C)[C@@H](O)[C@H](N)[C@@H]2O)C[C@@H]2O[C@](O)(C[C@@H](O)C[C@@H](O)[C@H](O)CC[C@@H](O)C[C@@H](O)CC(=O)O[C@H]1C)C[C@H](O)[C@H]2C(=O)O [AMPHOTERICIN B]
